Experimental findings from ChEMBL document CHEMBL2203039, “Azabenzthiazole inhibitors of leukotriene A₄ hydrolase” (Bioorg Med Chem Lett, 2012) are described below.

Data set [1] concerns the target T1, Leukotriene A-4 hydrolase (Homo sapiens, UniProt P09960).
T1 sequence (P09960 whole entry): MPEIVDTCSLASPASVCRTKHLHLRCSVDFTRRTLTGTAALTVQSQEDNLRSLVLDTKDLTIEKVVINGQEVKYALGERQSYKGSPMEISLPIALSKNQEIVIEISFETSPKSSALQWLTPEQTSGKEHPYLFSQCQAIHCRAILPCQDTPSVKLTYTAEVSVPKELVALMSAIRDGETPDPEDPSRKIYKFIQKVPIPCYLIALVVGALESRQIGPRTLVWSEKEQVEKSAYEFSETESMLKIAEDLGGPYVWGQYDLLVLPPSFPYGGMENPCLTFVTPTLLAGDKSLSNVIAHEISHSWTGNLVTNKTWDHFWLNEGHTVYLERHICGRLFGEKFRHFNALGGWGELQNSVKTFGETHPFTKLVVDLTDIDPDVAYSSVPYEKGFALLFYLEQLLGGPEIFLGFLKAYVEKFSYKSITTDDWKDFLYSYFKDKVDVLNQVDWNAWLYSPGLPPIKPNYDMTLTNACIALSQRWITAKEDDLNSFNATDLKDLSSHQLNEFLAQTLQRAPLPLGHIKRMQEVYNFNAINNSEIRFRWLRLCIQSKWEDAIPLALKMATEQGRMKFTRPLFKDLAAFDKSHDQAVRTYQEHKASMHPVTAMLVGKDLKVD
The experiment in a line: Inhibition of human recombinant LTA4 hydrolase expressed in SF9 cells using LTA4 as substrate assessed as LTB4 production incubated for 10 mins prior to substrate addition measured after 10 to 30 mins by enzyme immunoassay. Format: cell-based.

The species named for data set [2] is Mus musculus. The data set can be described thus: animal or person. The following applies: Balb/c, Blood. The data set is classed as functional, organism-based.
Data set [3] can be described thus: Oral bioavailability in rat at 10 mg/kg. Format: ADME, organism-based. The following applies: in vivo.
For data set [4], the species on record is Mus musculus. The experiment in a line: animal or person. Format: functional. The note with it: Balb/c, Blood, 3 h, route oral.
The species named for data set [5] is Mus musculus. The data set can be described thus: animal or person. The data set is classed as functional. The note with it: Balb/c, 3 h, route oral.
The nature of data set [6]: Half life in rat at 2 mg/kg, iv. The note with it: in vivo. The data set is classed as ADME, organism-based. The arrangement: dose 2 mg/kg, route intravenous.
A short description of data set [7]: Volume of distribution at steady state in rat at 2 mg/kg, iv. The data set is classed as ADME, organism-based. The arrangement: dose 2 mg/kg, route intravenous. The following applies: in vivo, read-out: Vdss.
A short description of data set [8]: Cmax in rat at 10 mg/kg, po. The data set is classed as ADME, organism-based. The note with it: in vivo. The arrangement: dose 10 mg/kg, route oral.
A short description of data set [9]: Clearance in rat at 2 mg/kg, iv. The data set is classed as ADME, organism-based. The note with it: in vivo. The arrangement: dose 2 mg/kg, route intravenous.
The target of data set [10] is T2, Voltage-gated inwardly rectifying potassium channel KCNH2 (Homo sapiens, UniProt Q12809). The experiment in a line: Inhibition of dofetilide binding to human ERG by radioligand binding assay.
The target of data set [11] is T2, Voltage-gated inwardly rectifying potassium channel KCNH2. The data set can be described thus: Inhibition of human ERG by patch clamp assay. Background: The patch-clamp technique gives a direct electrical read-out from membranes.

T2 sequence (Q12809 whole entry): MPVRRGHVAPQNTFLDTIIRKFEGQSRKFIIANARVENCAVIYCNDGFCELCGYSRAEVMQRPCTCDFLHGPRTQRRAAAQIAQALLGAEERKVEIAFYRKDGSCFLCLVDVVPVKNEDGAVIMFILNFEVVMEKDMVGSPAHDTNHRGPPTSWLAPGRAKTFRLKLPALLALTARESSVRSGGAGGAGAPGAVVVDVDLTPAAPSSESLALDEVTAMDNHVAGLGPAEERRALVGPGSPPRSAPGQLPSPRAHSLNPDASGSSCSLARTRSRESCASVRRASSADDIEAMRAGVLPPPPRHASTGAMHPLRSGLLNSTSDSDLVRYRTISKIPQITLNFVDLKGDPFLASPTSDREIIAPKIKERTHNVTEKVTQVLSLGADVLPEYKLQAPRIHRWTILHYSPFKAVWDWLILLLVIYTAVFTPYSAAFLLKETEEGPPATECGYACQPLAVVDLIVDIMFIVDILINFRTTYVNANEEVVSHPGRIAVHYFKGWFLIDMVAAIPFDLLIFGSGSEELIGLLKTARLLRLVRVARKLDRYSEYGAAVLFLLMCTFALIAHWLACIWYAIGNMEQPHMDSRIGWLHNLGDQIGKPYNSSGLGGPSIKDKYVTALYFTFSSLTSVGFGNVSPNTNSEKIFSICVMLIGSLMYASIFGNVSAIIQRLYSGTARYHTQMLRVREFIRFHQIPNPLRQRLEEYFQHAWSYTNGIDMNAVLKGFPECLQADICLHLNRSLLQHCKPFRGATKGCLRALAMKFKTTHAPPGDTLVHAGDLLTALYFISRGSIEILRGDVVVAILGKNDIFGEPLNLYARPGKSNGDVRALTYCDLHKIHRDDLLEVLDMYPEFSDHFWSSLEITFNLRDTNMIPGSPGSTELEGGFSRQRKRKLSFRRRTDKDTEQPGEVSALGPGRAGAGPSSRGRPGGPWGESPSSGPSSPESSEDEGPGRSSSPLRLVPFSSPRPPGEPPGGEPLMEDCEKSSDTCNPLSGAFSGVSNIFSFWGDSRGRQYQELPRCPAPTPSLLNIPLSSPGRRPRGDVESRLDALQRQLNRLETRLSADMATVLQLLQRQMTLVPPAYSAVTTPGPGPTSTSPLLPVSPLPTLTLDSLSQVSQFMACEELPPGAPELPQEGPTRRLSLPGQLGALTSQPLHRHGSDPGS

The IC50 is the point on the concentration scale where inhibition reaches its midpoint. In the case of `c1cc2nc(Oc3ccc(CN4CCCCC4)cc3)sc2cn1`, the IC50 turned out to be 614 nM in data set [1] and 723 nM in data set [2].
Broadly, the inhibition in vivo is how much of the control response was suppressed. Low readings indicate little suppression, high ones strong suppression. By half-life is commonly meant the time needed for the level to fall by half in the phase considered. Read a high half-life as slow decline. Usually Cmax stands for the maximum level reached in the sampled fluid or tissue. One may read the clearance as a measure of how efficiently the substance is removed, as volume per time. In the case of `CC(=O)NC1CC2CCC(C1)N2Cc1ccc(Oc2nc3ncccc3s2)cc1` (centres undefined), the half-inhibitory concentration (IC50) was determined as 1 nM in data set [1] and 20 nM in data set [2]. Besides, the bioavailability in data set [3] stood at 65%. Further, the inhibition in vivo at 30 mg/kg in data set [4] stood at 81%; in data set [5] it was 70%. In [6], the half-life is 2 h. In addition, in data set [7], the Vd stood at 3.5 L/kg. In data set [8], this compound gave a Cmax of 1200 nM. Besides, in data set [9], the clearance was 20 mL/min/kg.
For the compound `NC(=O)C1CCN(CCOc2ccc(Oc3nc4ncccc4s3)cc2)CC1`, the values for the IC50 in data set [1], in [2] and in data set [10] were 16 nM, 30 nM and over 10000 nM, respectively. Also, the inhibition in vivo at 30 mg/kg in data set [4] was 80%; in data set [5], 71%.
Take `CC(=O)N1CC2CC1CN2CCOc1ccc(Oc2nc3ncccc3s2)cc1` (centres undefined): the results for the IC50 in [1] and in data set [2] were 7 nM and 18 nM, respectively. In addition, the inhibition in vivo at 30 mg/kg in data set [4] is 84%; in [5], 72%.
Regarding `c1cnc2nc(Oc3ccc(OCCN4CCCCC4)cc3)sc2c1`, the IC50 came out at 8 nM in data set [1] and 18 nM in [2]. Further, the inhibition in vivo at 30 mg/kg in [4] was found to be 65%; in [5] it was 62%.
As for `Clc1cnc2nc(Oc3ccc(CN4CCCCC4)cc3)sc2c1`, the half-maximal inhibitory concentration (IC50) in [2] was 245 nM; in data set [10] it was over 10000 nM.
Turning to `O=C1CCCN1C1CCN(CCOc2ccc(Oc3nc4ncccc4s3)cc2)CC1`, the IC50 in [11] is 2500 nM; in data set [1], 6 nM; in [2], 20 nM; in [10], over 10000 nM. Further, the inhibition in vivo at 30 mg/kg turned out to be 89% in [4] and 76% in data set [5].
Regarding `CC(=O)N1CC2CN(Cc3ccc(Oc4nc5ncccc5s4)cc3)CC2C1` (centres undefined), the values for the inhibition in vivo at 30 mg/kg in [4] and in data set [5] were 57% and 95%, respectively. In [2], this compound had an IC50 of 10 nM.
In the case of `O=C1CCCN1C1CCN(Cc2ccc(Oc3nc4ncccc4s3)cc2)CC1`, the IC50 is over 10000 nM in [11], 6 nM in [1], 27 nM in [2] and over 10000 nM in [10]. In addition, the inhibition in vivo at 30 mg/kg in data set [4] is 81%; in data set [5], 88%.
`NC(=O)C1CCN(CCc2ccc(Oc3nc4ncccc4s3)cc2)CC1`: the IC50 in data set [1] is 11 nM; in data set [2], 50 nM; in [10], over 10000 nM. For the same compound, the inhibition in vivo at 30 mg/kg in [4] stood at 76%; in data set [5], 60%.
As to `CC(=O)N1CC2CC1CN2Cc1ccc(Oc2nc3ncccc3s2)cc1` (centres undefined), the IC50 in data set [11] is over 10000 nM; in data set [1], 5 nM; in data set [2] it was 7 nM; in [10], over 10000 nM. In data set [3], the bioavailability was determined as 125%. Further, the inhibition in vivo at 30 mg/kg in data set [4] was 92%; in data set [5], 88%. Further, the half-life in [6] is 3.3 h. The Vd in data set [7] was 1.4 L/kg. The Cmax in [8] came out at 3300 nM. Moreover, in data set [9], the clearance was 7 mL/min/kg.
With `c1cnc2nc(Oc3ccc(CN4CCCCC4)cc3)sc2c1`, the IC50 is 3 nM in data set [1], 14 nM in data set [2] and over 10000 nM in [10]. Moreover, the inhibition in vivo at 30 mg/kg in data set [4] was 67%; in [5], 48%.
`NC(=O)C1CCN(Cc2ccc(Oc3nc4cccnc4s3)cc2)CC1`: the IC50 in data set [1] came to 733 nM; in [2], 2040 nM.
As to `CC(=O)NC1CC2CCC(C1)N2CCc1ccc(Oc2nc3ncccc3s2)cc1` (centres undefined), the IC50 in data set [1] was 0.3 nM. Moreover, the results for the inhibition in vivo at 30 mg/kg in data set [4] and in data set [5] were 85% and 78%, respectively.
In the case of `CC(=O)N1CC2CC1CN2CCc1ccc(Oc2nc3ncccc3s2)cc1` (centres undefined), the IC50 in data set [1] was determined as 14 nM; in [2] it was 30 nM. In addition, the inhibition in vivo at 30 mg/kg came out at 90% in [4] and 68% in [5].
Consider `c1cnc2nc(Oc3ccc(CCN4CCCCC4)cc3)sc2c1`, for which the figures for the inhibition in vivo at 30 mg/kg in [4] and in data set [5] were 70% and 36%, respectively. In addition, the IC50 was 24 nM in [2] and over 10000 nM in data set [10].
Consider `CC(=O)N1CC2CN(CCc3ccc(Oc4nc5ncccc5s4)cc3)CC2C1` (centres undefined), for which the IC50 in data set [1] is 6 nM; in [2], 22 nM; in data set [10], over 10000 nM. For the same compound, the inhibition in vivo at 30 mg/kg in [4] was 86%; in data set [5], 79%.
With `Cc1ccnc2nc(Oc3ccc(CN4CCCCC4)cc3)sc12`, the results for the inhibition in vivo at 30 mg/kg in [4] and in data set [5] were 12% and 42%, respectively. The compound also displayed an IC50 in [2] of 82 nM.
On to `c1cc2sc(Oc3ccc(CN4CCCCC4)cc3)nc2cn1`, for which, in data set [1], the IC50 is 1800 nM.
In the case of `NC(=O)C1CCN(Cc2ccc(Oc3nc4ncccc4s3)cc2)CC1`, the IC50 in data set [11] is over 10000 nM; in data set [1] it was 6 nM; in data set [2], 37 nM; in data set [10], 8900 nM. The inhibition in vivo at 30 mg/kg in data set [4] amounted to 85%; in [5], 89%.
In the case of `CC(=O)NC1CC2CCC(C1)N2CCOc1ccc(Oc2nc3ncccc3s2)cc1` (centres undefined), the IC50 in data set [1] is 4 nM; in [2], 24 nM. Also, the values for the inhibition in vivo at 30 mg/kg in data set [4] and in data set [5] were 85% and 74%, respectively.
On to `CC(=O)N1CC2CN(CCOc3ccc(Oc4nc5ncccc5s4)cc3)CC2C1` (centres undefined), for which the IC50 in data set [1] is 7 nM; in data set [2], 30 nM; in data set [10], over 10000 nM. In addition, the inhibition in vivo at 30 mg/kg in data set [4] was determined as 81%; in data set [5] it was 86%.
On to `O=C1CCCN1C1CCN(CCc2ccc(Oc3nc4ncccc4s3)cc2)CC1`, for which the figures for the IC50 in data set [11], in [1] and in [2] were 2800 nM, 14 nM and 65 nM, respectively. Moreover, the values for the inhibition in vivo at 30 mg/kg in [4] and in data set [5] were 86% and 75%, respectively.
